# Results from patent US20130210860A1, “PROPHYLACTIC AND/OR THERAPEUTIC AGENT AGAINST LYMPHEDEMA” (KOWA CO., LTD., priority 2010, published 2013).
# How the values were obtained:
# [1] = system: mouse model of abdominal wall lymphedema; assay: Mouse model of abdominal wall lymphedema, thickness of the skin section (wild-type mouse); format: in vivo, C57BL/6J mouse; conditions: for lymphedema (thickness of the skin): C57BL/6J mice, combined results of Experiments 2 and 3, pitavastatin 1 mg/kg/day, atorvastatin 2.5 or 1 mg/kg/day, pravastatin 1 mg/kg/day oral, after seven days, FIG. 2
# Procedure: (§1) A male C57BL/6J mouse and a male eNOS-deficient mouse having a genetic background of C57BL/6J, both of which are eight weeks old at the time of surgery, each receives an intraperitoneal injection of Nembutal at 60 mg/kg, and further receives a subcutaneous injection of 1% Evans blue for identification of lymph nodes and lymphatic vessels in the dorsum of the right foot, the back of the hand, and the buttocks in an amount of 0.05 mL at each site. The abdominal hair was removed and the abdominal skin is incised in an open-door fashion so as to identify the inguinal lymph nodes, axillary lymph nodes, and lymphatic vessels connecting these lymph nodes in the right abdominal wall. The lymphatic vessels are ligated at two to three sites near the axillary lymph nodes, followed by excision of the axillary lymph nodes. Subsequently, the skin is sutured, whereby the surgery is completed. On the seventh day after the surgery, the abdominal skin is once again incised in an open-door fashion to collect the abdominal wall tissues. The mice were orally administered with the statins dissolved in distilled water (250 μl) from three days before to seven days after the surgery once a day. […] Methanol-fixed paraffin-embedded tissue sections were stained with hematoxylin, and the thickness of the skin section prepared from the upper inguinal area, which is the lowermost part of a mouse, was measured. Anatomically, interstitial fluid tends to be accumulated in this area.
# [2] = system: mouse model of abdominal wall lymphedema; assay: Visual examination by lymphangiography (Evans blue): leakage of lymph fluid and lymphatic flow in the lymphedema model; format: in vivo, C57BL/6J mouse; conditions: C57BL/6J mice; administration method of Experiment 3 (1 mg/kg/day oral); lymphangiography on the seventh and fourteenth days after the surgery; FIG. 3
# Procedure: A male C57BL/6J mouse and a male eNOS-deficient mouse having a genetic background of C57BL/6J, both of which are eight weeks old at the time of surgery, each receives an intraperitoneal injection of Nembutal at 60 mg/kg, and further receives a subcutaneous injection of 1% Evans blue for identification of lymph nodes and lymphatic vessels in the dorsum of the right foot, the back of the hand, and the buttocks in an amount of 0.05 mL at each site. The abdominal hair was removed and the abdominal skin is incised in an open-door fashion so as to identify the inguinal lymph nodes, axillary lymph nodes, and lymphatic vessels connecting these lymph nodes in the right abdominal wall. The lymphatic vessels are ligated at two to three sites near the axillary lymph nodes, followed by excision of the axillary lymph nodes. Subsequently, the skin is sutured, whereby the surgery is completed. […]
# On the seventh and fourteenth days after the surgery, 0.05 μl of 1% Evans blue was locally injected into the inguinal lymph nodes for lymphangiography, whereby leakage of lymph fluid and lymphatic flow were evaluated.
# Each statin was administered by the administration method employed in Experiment 3) and the leakage of lymph fluid and lymphatic flow were evaluated by lymphangiography of the lymph node tissues.
# [3] = system: mouse model of abdominal wall lymphedema; assay: Mouse model of abdominal wall lymphedema, thickness of the skin section (eNOS-deficient mouse); format: in vivo, eNOS-deficient mouse having a genetic background of C57BL/6J; conditions: Experiment 1, 10 mg/kg/day oral, once a day from three days before to seven days after the surgery, FIG. 1
# Procedure: as §1, with “Anatomically, interstitial fluid tends to be accumulated in this area.” left out
SMILES,lymphedema (thickness of the skin) [1],leakage of lymph fluid [2],"lymphedema (thickness of the skin section prepared from the upper inguinal area) ([1]; wild-type mouse, Experiment 1, 10 mg/kg/day oral, once a day from three days before to seven days after the surgery, FIG. 1)",lymphedema (thickness of the skin section prepared from the upper inguinal area) [3]
"CC[C@H](C)C(=O)O[C@H]1C[C@H](O)C=C2C=C[C@H](C)[C@H](CC[C@@H](O)C[C@@H](O)CC(=O)O)[C@H]21 [pravastatin, (+)-(3R,5R)-3,5-dihydroxy-7-[(1S,2S,6S,8S,8aR)-6-hydroxy-2-methyl-8-[(S)-2-methylbutyryloxy]-1,2,6,7,8,8a-hexahydro-1-naphthyl]heptanoic acid]",markedly inhibit,,,
"O=C(O)C[C@H](O)C[C@H](O)/C=C/c1c(C2CC2)nc2ccccc2c1-c1ccc(F)cc1 [pitavastatin, (3R,5S,6E)-7-[2-cyclopropyl-4-(4-fluorophenyl)-3-quinolyl]-3,5-dihydroxy-6-heptenoic acid]",markedly inhibit,markedly inhibited,markedly inhibited,markedly inhibited
